Results from patent US20190084939A1, “ANALOGS OF FEXARAMINE AND METHODS OF MAKING AND USING” (Salk Institute for Biological Studies, priority 2014, published 2019).
Entries after “also recorded” stand apart in the source; their conditions may differ.

Columns and labels:
[1] = test system: FXR target gene expression; experiment: FXR target gene expression (qPCR) in tissues after PO or IP fexaramine; type: in vivo, C57BL/6J mice; conditions: for FXR target gene (SHP) expression in liver and kidney, IP versus PO / FXR target genes (IBABP, OSTα, FGF15) in the intestine / FXR target genes in liver or kidney: 100 mg/kg; for FXR target genes (IBABP, OSTα, FGF15) in the intestine / FXR target genes in liver or kidney: PO
Procedure: FIGS. 1A-1C are a comparative expression chart and two bar charts, respectively, illustrating increased levels of FXR target gene expression in the intestine relative to expression in the liver and kidney. 8 week-old C57BL/6J mice were treated with vehicle or fexaramine (100 mg/kg) via oral (PO) or intraperitoneal (IP) injection for three days (FIGS. 1A-1B) or five days (FIG. 1C).
FXR target gene expression was analyzed by qPCR. Gene expression was normalized against a vehicle-treated group.
Upon exploration of the in vivo effects of fexaramine (Fex) administration, it was discovered that due to ineffectual absorption, oral (PO) and intraperitoneal (IP) drug delivery produced very different effects (FIGS. 1D and 1E).

FXR-null mice = experiment: chronic PO fexaramine in HFD fed FXR-null mice; type: in vivo; conditions: 100 mg/kg 5 week with HFD
Procedure: Data represent the mean±SD. Statistical analysis was performed with the Student's t test. *p<0.05, **p<0.01.
Therefore, glucose tolerance tests (GTTs) and insulin tolerance tests (ITTs) were performed to determine if glucose homeostasis was improved in fexaramine-treated DIO mice.

[2] = test system: pancreatic islets gene expression; experiment: RNA-Seq of pancreatic islets of treated ob/ob mice; type: in vivo; conditions: fexaramine 100 mg/kg 5 weeks, analogs 50 mg/kg 2 weeks
Procedure: Pancreatic islets were isolated from ob/ob mice after daily treatment by oral gavage with fexaramine (100 mg/kg for 5 weeks), FEX-D (50 mg/kg for 2 weeks) or SALK110 (NSSK00110, 50 mg/kg for 2 weeks). Changes in gene expression were determined by RNA-Seq.

ApcMin/+ mice = experiment: ApcMin/+ colon cancer mouse model; type: in vivo
Procedure: The farnesoid X receptor (FXR) is a bile acid activated nuclear receptor widely expressed through the body. The ability of the intestinal-specific FXR ligand fexaramine to inhibit the progression of colon cancer in mice with a heterozygote mutation for the Apc gene (ApcMin/+ mice on a C57B6 background obtained from Jackson Laboratories) was determined.
5 week old ApcMin/+ mice (13-15 males per group receiving a standard diet, a model for colorectal and intestinal cancer) were treated with vehicle (corn oil) or fexaramine (FEX, 100 mg/kg in corn oil) by oral gavage, three times a week for 23 weeks. Mice body weight and food-intake were measured daily. At the end of the treatment regimen, surviving animals were sacrificed by cervical dislocation and the entire intestinal tract was immediately removed and washed with cold phosphate-buffered saline.
At the completion of the treatment, the colons were removed, flushed with PBS, fixed as “Swiss-rolls” in 4% paraformaldehyde at 4° C. overnight, and paraffin-embedded. Sections (5 μm) were cut stepwise (200 μm) through the complete block and stained with H&E. Tumor counts were performed blinded by a trained pathologist. To determine proliferation rates, mice were injected i.p. with 100 mg/kg of BrdU 2.5 hours prior to sacrifice and paraffin sections stained using a BrdU-in situ detection kit. The extent of apoptosis was determined by TUNEL assay using the ApoAlert DNA fragmentation assay kit. BrdU- and TUNEL-positive cells were counted by an investigator blinded to the genotype. For immunohistochemistry, antigen retrieval was performed (Vector Lab H3300) and then RTU Vectastain Universal Elite ABC Kit and NovaRED or VIP substrate (all from Vector Lab) were used, following the manufacturer's instructions.
Statistical analysis were performed in collaboration with the Cancer Prevention-Biostatistics department at the University of California at San Diego Cancer Center. This is part of an ongoing collaboration and has previously been applied to the APC^Min model of colorectal cancer as well as to several other cancer models including prostate and breast cancer. The volume of polyps was calculated considering them as hemispheres (½×[…] π r^3). All other evaluations were performed in the distal tract of the small intestine because ApcMin/+ mice develop the majority of tumors in the small intestine.

human L cells = experiment: oxygen consumption rate of intestinal L cells (Seahorse analyzer); type: cell-based; conditions: fexaramine 1 μM for 24 hours
Procedure: FIG. 41 is a graph showing the effects of modulating FXR activity on the oxidative metabolism of intestinal L cells. L cells were treated with the FXR agonist fexaramine, the FXR antagonist Guggulsterone, or a combination of both, prior to measurement of their oxygen consumption rate (OCR) in a Seahorse analyzer.
To examine the effects of FXR in the secretion of GLP-1, the metabolic changes induced in human L cells was measured by treatment with the FXR agonist, fexaramine and an FXR antagonist guggulsterone. Treatment of L cells with fexaramine (1 μM for 24 hours) lead to an increase in the oxygen consumption rate (OCR), consistent with increased mitochondrial activity and consequently, an increased energetic state (FIG. 41). The reverse effect was seen after treatment with the FXR antagonist, guggulsterone, with lower OCR after drug treatment.

## COC(=O)/C=C/c1cccc(N(Cc2ccc(-c3ccc(N(C)C)cc3)cc2)C(=O)C2CCCCC2)c1 [Fexaramine, fexaramine]
[1]
  FXR target gene (SHP) expression in liver and kidney, IP versus PO: increases
  FXR target genes (IBABP, OSTα, FGF15) in the intestine: substantially enhances
  FXR target genes in liver or kidney: intestinally-restricted; also recorded: not in the liver or kidney
[1]; listed as Fex
  FXR target gene (SHP) expression in liver and kidney, IP versus PO: only seen in liver and kidney after IP treatment
  FXR target genes (IBABP, OSTα, FGF15) in the intestine: induced multiple FXR target genes in the intestine
  FXR target genes in liver or kidney: failed to affect
[1]; acute PO and IP, 100 mg/kg for five days
  induction of FXR target gene SHP throughout the intestine: robust induction
FXR-null mice
  Fex-induced changes in gene expression and metabolic homeostasis: abrogated
[2]
  gene induction in islets (intracellular signaling, insulin secretion, exocytosis): induce a common set of genes
ApcMin/+ mice; 100 mg/kg oral gavage three times a week
  colon cancer-induced cachexia (weight loss): resistant to colon cancer-induced cachexia
ApcMin/+ mice; after 23 weeks
  serum total cholesterol and triglyceride levels: reduces circulating triglycerides; also recorded: reduced
  tumor size in duodenum, jejunum, ileum and throughout the intestine: dramatic reduction in tumor size
  tumors in colon sections: No tumors were observed
ApcMin/+ mice; after 23 weeks, p 0.04
  reduction in total tumor burden versus vehicle: 20%
ApcMin/+ mice; after 23 weeks, p 0.08
  reduction in tumor burden in the ileum: 25%
  reduction in tumor burden in the jejunum: 11.75%
ApcMin/+ mice; after 23 weeks, p 0.73
  tumor burden in the duodenum: no change in tumor burden
ApcMin/+ mice; vehicle 20%
  survival at 25 weeks: 80%
ApcMin/+ mice; vehicle-treated mice lose ˜10%
  body weight change: maintain their weight
Human L cells
  oxygen consumption rate (OCR): increase
